{
  "source": "patent US10800741B2",
  "about": "(ANCUREALL PHARMACEUTICAL (SHANGHAI) CO., LTD., priority 2017, dated 2020)",
  "key": {"[1]": {"tested_on": "human non-small cell lung cancer cell line NCI-H1299 (NRAS Q61K mutation)", "experiment": "Growth inhibition in combination with MEK1/2 inhibitor Trametinib, NCI-H1299 (NRAS Q61K mutation)", "type": "cell-based", "conditions": "5 days", "experimental": "Test Example 5 Synergistic Inhibition Effect of the Present Compounds in Combination with MEK1/2 Inhibitor on the Growth of RAS Mutant Tumor Cells In Vitro\nThe cell culture, drug treatment and MTT assay of human intestinal cancer cell line HCT116 (KRAS G13D mutation) and human non-small cell lung cancer cell line NCI-H1299 (NRAS Q61K mutation) were performed according to the method of test example 1. Cells were treated with the MEK1/2 inhibitor Trametinib at 25 nM, 2.5 nM and 0.25 nM alone or in combination with compound 66 or 125 of the present invention (5 days)."}, "protein kinases": {"biological_target": "T1, protein kinases (Homo sapiens, UniProt Q12866)", "T1 construct": "purchased Discovery X company (USA), KINOMEscan screening platform", "T1 sequence (Q12866 21-999)": "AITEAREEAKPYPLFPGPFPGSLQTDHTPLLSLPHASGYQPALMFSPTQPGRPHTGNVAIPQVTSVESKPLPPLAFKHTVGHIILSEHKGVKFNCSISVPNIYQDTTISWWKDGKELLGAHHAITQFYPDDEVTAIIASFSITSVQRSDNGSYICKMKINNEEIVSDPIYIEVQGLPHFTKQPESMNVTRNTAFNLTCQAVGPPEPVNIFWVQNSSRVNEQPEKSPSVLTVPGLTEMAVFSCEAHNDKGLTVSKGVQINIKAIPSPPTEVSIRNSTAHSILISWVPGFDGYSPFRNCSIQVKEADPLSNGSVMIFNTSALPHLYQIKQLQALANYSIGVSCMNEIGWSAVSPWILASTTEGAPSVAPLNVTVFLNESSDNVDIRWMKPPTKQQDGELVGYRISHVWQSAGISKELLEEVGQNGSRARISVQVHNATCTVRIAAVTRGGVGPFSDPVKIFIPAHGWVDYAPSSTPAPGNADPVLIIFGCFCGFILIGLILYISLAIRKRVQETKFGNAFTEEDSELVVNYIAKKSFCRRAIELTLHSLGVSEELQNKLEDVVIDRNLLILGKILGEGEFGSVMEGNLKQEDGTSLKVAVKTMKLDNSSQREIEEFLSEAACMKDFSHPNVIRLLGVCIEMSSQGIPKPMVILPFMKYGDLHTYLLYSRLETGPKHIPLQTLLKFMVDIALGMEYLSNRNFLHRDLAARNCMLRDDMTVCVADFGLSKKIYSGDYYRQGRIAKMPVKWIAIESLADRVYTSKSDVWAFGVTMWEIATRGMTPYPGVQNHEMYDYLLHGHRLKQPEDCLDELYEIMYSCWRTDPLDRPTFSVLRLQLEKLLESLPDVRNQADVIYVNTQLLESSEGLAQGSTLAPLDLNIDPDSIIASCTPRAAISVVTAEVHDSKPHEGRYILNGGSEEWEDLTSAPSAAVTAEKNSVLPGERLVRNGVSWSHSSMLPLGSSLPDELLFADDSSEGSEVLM", "experiment": "KINOMEscan in vitro binding to 468 labeled protein kinases", "conditions": "MERTK, read-out: Test compound/solvent control (%)", "method_in_brief": "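Competition binding across 468 labelled kinases on the KINOMEscan platform, compound tested at 1000 nM, 10 nM and 1 nM, duplicate samples. Result given as percentage of DMSO solvent control; lower percentage means stronger binding.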"}},
  "data": [
    {"smiles": "COCCOc1cc2nccc(Oc3ccc(NC(=O)Nc4cc(C(C)(C)C)n[nH]4)c(Cl)c3)c2cc1NC(C)=O", "note": "[Compound 66, N-[4-{4-[3-(5-tert-butyl-2H-pyrazol-3-yl)-ureido]-3-chloro-phenoxy}-7-(2-methoxy-ethoxy)-quinolin-6-yl]-acetamide]", "values": [
      {"measurement": "inhibition at 0.0078 µM", "setting": "[1]; Homo sapiens, NCI-H1299, 120 h, compound 7.8 nM alone (solvent instead of Trametinib), read-out: cell growth inhibition (percentage)", "value": 1.39, "unit": "%"},
      {"measurement": "inhibition at 0.0156 µM", "setting": "[1]; Homo sapiens, NCI-H1299, 120 h, compound 15.6 nM alone (solvent instead of Trametinib), read-out: cell growth inhibition (percentage)", "value": 4.59, "unit": "%"},
      {"measurement": "cell growth inhibition (percentage)", "setting": "[1]; compound 7.8 nM + Trametinib 0.25 nM", "value": 11.67, "unit": "%"},
      {"measurement": "cell growth inhibition (percentage)", "setting": "[1]; compound 7.8 nM + Trametinib 2.5 nM", "value": 20.73, "unit": "%"},
      {"measurement": "cell growth inhibition (percentage)", "setting": "[1]; compound 7.8 nM + Trametinib 25 nM", "value": 37.88, "unit": "%"},
      {"measurement": "cell growth inhibition (percentage)", "setting": "[1]; compound 15.6 nM + Trametinib 0.25 nM", "value": 16.82, "unit": "%"},
      {"measurement": "cell growth inhibition (percentage)", "setting": "[1]; compound 15.6 nM + Trametinib 2.5 nM", "value": 26.10, "unit": "%"},
      {"measurement": "cell growth inhibition (percentage)", "setting": "[1]; compound 15.6 nM + Trametinib 25 nM", "value": 42.52, "unit": "%"},
      {"measurement": "remaining binding at 0.001 µM", "setting": "protein kinases; 1 nM", "value": 57, "unit": "%"},
      {"measurement": "remaining binding at 0.01 µM", "setting": "protein kinases; 10 nM", "value": 4.1, "unit": "%"},
      {"measurement": "remaining binding at 1 µM", "setting": "protein kinases; 1000 nM", "value": 0.65, "unit": "%"}
    ]}
  ]
}
